One experiment relates to 5-HT2B. The arrangement: method as in Svensson et al., 2017; Hao et al., 2019. As to conditions: 10 uM of DETQ; ref Svensson et al., 2017; Hao et al., 2019; cited from earlier work.
The target of another experiment is dLight1.3b (Homo sapiens, UniProt P21728). Nature of the experiment: DA titrations on dLight1.3b-expressing HEK293 cells (confocal fluorescence imaging). The experiment is classed as cell-based. As for the experimental part:
Cells were transfected at 50–60% confluency in glass-bottomed dishes (either individually or in 24-well plates) using the Effectene transfection kit (Qiagen) according to manufacturer instructions, and imaged 24–48 h after transfection. The Flp-In™ T-REx™ 293 cells (Thermo Fisher) with a stably integrated dLight1.3b cassette[48] were cultured as follows: the cells were cultured using HEK293T cell medium with the addition of Blasticidin (15 µg/ml) and Hygromycin B (200 µg/ml). To induce the expression of dLight1.3b, doxycycline (500 ng/ml) was added to the culture medium for 24–48 hours. Before imaging, cells were rinsed with 1 mL of Hank’s Balanced Salt Solution (HBSS, Life Technologies) supplemented with Ca^2+ (2 mM) and Mg^2+ (1 mM), and imaged at room temperature with a final HBSS volume of either 100 µL for each individual 1.5 cm glass bottom dish, or 500 µL for 24-well plates. Time-lapse imaging was performed on an inverted Zeiss LSM 800 confocal microscope using a 488 nm laser and a 40X oil-based objective. During imaging, ligands were added in bolus on the cells using a micropipette to reach the final specified concentrations of ligand over the cells. For quantification, except otherwise noted, regions of interest (ROI) were selected manually using the threshold function of Fiji to isolate the cell membrane. Sensor response (∆F/F) was calculated as the following: (F(t)-F_base)/F_base with F(t) being the ROI fluorescence value at each time point (t), and F_base being the mean fluorescence of the 10-time points immediately prior to ligand addition.

A further experiment deals with AlloLite-ctr. Nature of the experiment: In vivo photometry of AlloLite-ctr in NAc. The arrangement: species or system mouse. Particulars: DETQ 10 mg/kg. As for the experimental part: Fiber photometry combined with optogenetics was conducted using a RZ10X LUX-I/O Processor with integrated LEDs (Tucker-Davis Technologies) combined with a filter/mirror minicube set (FMC6_IE(400-410)_E1(467-497)_F1(507-554)_E2(566-586)_F2(600-680)_S) (Doric Lenses). […] Low-autofluorescence patch cords (400 µm/0.57 NA, Doric) were attached to the optic fibers (400 µm/0.66 NA, Doric) on the mouse’s head to collect fluorescence emissions. Signals were filtered through 500–540 nm GFP emission filters coupled to a photodetector on the RZ10X. […] Data were sampled at 1017.3 Hz. […] For optogenetic stimulation, a 635 nm LED was passed through the 580–680 nm minicube F2 port and reached the mouse through the same unique optic fiber; the LED was driven at 1 to 3 mW. To determine the ‘temporal window for stable imaging’ in the PFC using dLight1.3b recordings, DAT^IREScre mice expressing ChrimsonR in VTA DA axons and dLight1.3b in the PFC were injected i.p. with vehicle at 0 min, followed by DETQ (10 mg/kg) 25 min later. […] DA release was measured with fiber photometry. […] After each injection, NAc DA axons were optically (opto) activated across 3 trials (2 s, 20 Hz, 20-ms pulses) every 5 min and DA released measured with fiber photometry. […] After each injection, NAc DA axons were optically (opto) inhibited (10 s, continuous trials) every 3 min (8 trials/condition) and DA released measured with fiber photometry. […] DA release was measured with fiber photometry.
For long-term recordings during optogenetic stimulation or chemogenetic inhibition linear fit was calculated across the entire recording or across the vehicle epoch; for event-related experiments fit was performed on fluorescent data obtained in the −60 to +60 s around opto events or −5 to −1 s around behavioral events. […] DA event-related responses were quantified by computing the value at the transient’s peak value and the AUC in the 0 to 10 s or 0 to 60 s period post-event onset. […]

Consider `C[C@H]1c2cccc(C(C)(C)O)c2C[C@H](CO)N1C(=O)Cc1c(Cl)cccc1Cl` [DETQ, 2-(2,6-dichlorophenyl)-1-((1S,3R)-3-(hydroxymethyl)-5-(2-hydroxypropan-2-yl)-1-methyl-3,4-dihydroisoquinolin-2(1H)-yl)ethan-1-one], for which the “inhibition of ligand binding” value in the experiment with 5-HT2B is listed as 48%. Besides, at dLight1.3b, the “maximal leftward shift in the EC50 of DA” value is given as ~ 8 fold and the “sensor response to DETQ in the absence of DA” value was “could not trigger a response”. In addition, the “effect on the DA sensitivity of dLight1.3b” value at dLight1.3b (D1-PAM 5 μM) was “strong positive allosteric effect”. Moreover, at dLight1.3b (DA 100 nM, DETQ 100 nM), the “sensor fluorescence in the presence of sub-maximal DA” value was “strong and significant increase”. In addition, the “maximal fluorescent response to a saturating concentration of DA” value at dLight1.3b (DA 100 µM, wide range of DETQ concentrations) was “not affected”. Besides, on dLight1.3b (DA titrations with 1 nM to 450 nM DETQ, allosteric EC50 shift, read-out: allosteric affinity constant (Kb)), the Kb was 54 nM. The “effect on sensor responses to noradrenaline (NE)” value on dLight1.3b (DETQ 50 nM) was “potentiation”. Moreover, the α factor on dLight1.3b (allosteric EC50 shift fit) worked out at 8.6. In the experiment on AlloLite-ctr, the “increase in baseline signal after DETQ administration” value is listed as “completely absent”; the “opto-evoked DA peaks of AlloLite-ctr upon DETQ” value is “retained the same amplitude and kinetics”.
